“Also recorded” adds a separate entry of the source. Read-outs that look alike come from different tables or passages of the source.
Columns and labels:
CXXC5-DVL interaction [1] = target: T1, CXXC5-DVL interaction (Homo sapiens, UniProt O14640); assay: in vitro CXXC5-DVL PPI inhibition screening assay (FITC-tagged PTD-DBMP on DVL-PDZ, fluorescence); assay type: binding
T1 sequence (O14640 251-323 limits assumed): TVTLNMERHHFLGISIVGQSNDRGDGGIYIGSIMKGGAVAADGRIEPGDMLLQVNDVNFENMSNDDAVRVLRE
Experimental: Screening for compounds that inhibit the CXXC5-DVL interaction. […] CELL. DEATH. DIFFER. […] After the addition of 10 μM FITC-tagged PTD-DBMP to each well, each compound in the chemical library or control (DMSO) was treated to the well at a final concentration of 30 μM. The fluorescence intensity was measured using a Fluorstar Optima microplate reader (BGM Lab Technologie, Ortenberg, Germany) and normalized as follows: “(‘compounds-treated group’−‘blank’)/(‘DMSO-treated control’−‘blank’)*100”.

CXXC5-DVL interaction [2] = target: T1, CXXC5-DVL interaction; assay: Dvl-CXXC5 in vitro binding assay, (PTD-DBMP)-(PZD-DVL), concentration dependent
3T3-L1 preadipocytes = assay: adipocyte differentiation of 3T3-L1 preadipocytes, Oil Red O staining; assay type: cell-based
Experimental: Cell culture and adipocyte differentiation. 3T3-L1 cells were seeded in six-well plates at a density of 3×10^4 cells per well. The cells were grown in Dulbecco's modified Eagle medium (DMEM) with 10% bovine calf serum (Gibco) until confluent. After confluence, cells were induced to differentiate in DMEM containing 10% fetal bovine serum (FBS; Gibco) and MDI (520 μM methylisobutylxanthine (IBMX; Sigma-Aldrich), 1 μM dexamethasone (Sigma-Aldrich), and 167 nM insulin (Gibco)) with or without A3334. On day 4, the medium was replaced with DMEM containing 10% FBS and 167 nM insulin with or without A3334 and changed with fresh identical medium every 2 days up to day 14 post-induction. Cells were incubated at 37° C. in a 5% CO2 environment.
Oil Red O staining. […] For the quantification of lipid contents, the Oil Red O was eluted by the addition of 500 μl isopropanol containing 4% nonidet P-40 to each well and the absorbance was measured spectrophotometrically at 590 nm.
ORO staining. […] In the morning each well was washed thoroughly with water and images of the ORO staining were recorded with a Nikon bright-field optical microscope (Nikon TE-2000U, Tokyo, Japan) and quantified for further statistical analysis. For quantify lipid contents, the ORO was eluted by addition of 500 µl isopropanol containing 4% nonidet P-40 to each well and the absorbance was measured spectrophotometrically at 590 nm. […]

MCD-induced NASH mice = assay: MCD diet-induced NASH mice; assay type: in vivo; conditions: MCD diet 7 weeks; for hepatosteatosis (H&E): then 25 mg/kg daily oral gavage 3 weeks
Experimental: NASH study. Eight-week-old wild-type male C57BL/6N mice (KOATECH, Seoul, Korea) were fed on the methionine-choline deficient (MCD) diet for 7 weeks, followed by treatment with vehicle, A3334, A3051, or I3O of (25 mg kg^−1) sitagliptin (25 mg kg^−1) for another 3 weeks via daily oral gavage.
Collagen staining. 4 µm-liver tissues sections were stained using two common collagen staining methods. For Masson's trichrome staining, slides were fixed in Bouin's solution for 1 h. After incubation in Weigert's iron hematoxylin solution for 10 min, the slides were stained with Biebrich Scarlet-Acid Fuchsin and Aniline blue for 5 min. The collagen fibers were stained blue and the nuclei were stained black. For picrosirius red staining, sections were stained with Weigert's solution for 8 min and picrosirius red for 1 h. The collagen fibers were stained red with blue nuclei.

[3] = system: HFD-induced diabetes mice; assay: HFD-induced diabetes mice, A3334 versus rosiglitazone, one 5-day course; assay type: in vivo
Excerpt: Referring now to FIG. 37A-37E, C57BL/6N mice were fed HFD for 8 weeks to induce diabetes. Then, the mice were maintained on HFD and treated with either 25 mpk A3334 or 25 mpk rosiglitazone (RSG) once per day for next 5 days. Then, the mice were maintained HFD condition without any drug treatments (e.g., A3334 or RSG) for the next several weeks. Rosiglitazone (RSG) is a diabetes drug in thiazolidinedione (TZD) class which works as an insulin sensitizer functioning via binding PPAR in fat cells.
Referring now to FIG. 45A-45F, C57BL/6N mice were induced diabetes by HFD for 8 weeks, and then treated with A3334 (25 mpk) or RSG (25 mpk) once per day for 5 days starting at week 8 under HFD condition. Animals were sacrificed at week 11.

[4] = FIG. 33A-33C, unit inferred, read-out: IC50, in vitro (PTD-DBMP)-(PZD-DVL) binding analyses
[5] = 25 mpk, 5 days from week 8, sacrifice week 11
[6] = HFD 8 weeks, then 25 mpk once per day for 5 days

Compound	inhibition of CXXC5-DVL interaction (in words) (CXXC5-DVL interaction [1])	IC50 (CXXC5-DVL interaction [2]; [4])	adipogenic differentiation of 3T3-L1 preadipocytes (3T3-L1 preadipocytes)	hepatosteatosis (H&E) (MCD-induced NASH mice)	IC50 (CXXC5-DVL interaction [2]; FIG. 10B, read-out: CXXC5-Dvl PPI inhibition IC50)	liver steatosis [3, 5]	mRNA levels of lipogenesis markers in liver [3, 5]	serum insulin and total cholesterol levels [3, 5]	ALT and AST in blood serum [3, 6]	GTT and ITT [3, 6]	body weight gain [3, 6]	fasting glucose level after termination of drug treatment [3, 6]	CXXC5, β-catenin, crown like structures, PPARγ and macrophage markers ([3]; HFD 8 weeks, then 25 mpk once per day for 5 days, immunostaining)	PPARγ mRNA level ([3]; white adipose tissue, 25 mpk)	mRNA of M1 and M2 macrophage markers ([3]; white adipose tissue, 25 mpk)	mRNA of Wnt/β-catenin signaling target genes (Dvl1, Wisp1, Fosl1) ([3]; white adipose tissue, 25 mpk)	ALT and AST levels (MCD-induced NASH mice; then 25 mg/kg daily 3 weeks)	FFAs and TG in serum (MCD-induced NASH mice; then 25 mg/kg daily 3 weeks)	fibrosis, histological analyses (MCD-induced NASH mice; then 25 mg/kg daily 3 weeks)	liver mRNA of pro-inflammation, FA oxidation, apoptosis and fibrosis markers (MCD-induced NASH mice; then 25 mg/kg daily 3 weeks)
CO/N=C1/C(=C2/C(=O)Nc3cc(Cl)c(Cl)cc32)Nc2ccccc21 [Compound A3051, 5,6-dichloroindirubin-3′-methoxime]	effectively inhibited interaction between CXXC5 and DVL	7.71 nM	significant anti-differentiation effects	also reduced hepatosteatosis, but revealed only marginal effects compared to A3334																
COc1ccc2c(c1)/C(=C1/Nc3ccccc3/C1=N\O)C(=O)N2 [Compound A3334, 5-Methoxyindirubin-3′-oxime]	effectively inhibited interaction between CXXC5 and DVL	25.8 nM	efficiently inhibited the adipogenic differentiation of 3T3-L1 preadipocytes; also recorded: significant anti-differentiation effects	significantly abolished by A3334 co-treatment	63.1 nM	suppressed by A3334	suppressed by A3334	abolished by A3334	not evident	significant reduction of both GTT and ITT	suppressed the body weight gain induced by HFD	maintained at low level for several weeks	suppressed overexpression of CXXC5, increased expressions of β-catenin, suppressed formation of crown like structures (CRC), and suppressed the expression of PPARγ and macrophage markers	not increased by A3334	decreased and increased by A3334, respectively	increased by A3334	mostly abolished by A3334 treatment	mostly abolished with A3334 treatment	improvement of the MCD-diet induced fibrosis by A3334	significantly reduced by A3334
